Test results: the supplement of paper PMC10307832

Tests used:
Test in all cases: relative viability (nuclei count vs DMSO), 5 days (fraction); higher = more cells survive
NCI-H838 = system: NCI-H838
Procedure, shortened: (§1)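 After 5 days of treatment, lung cancer cells in 1536-well plates were fixed and stained in a single step (final 0.05% Triton X-100, 1% formaldehyde, 1 ug/ml Hoechst) and their nuclei counted on 4× images. Treatment had been applied by pin tool the day after seeding as one drug alone or as a fixed anchor-drug dose with five library-drug doses (not always all listed) in √10 steps. Relative viability is the nuclei count of treated wells divided by that of vehicle wells, and values are medians of duplicate plates.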

NCI-H1793 = system: NCI-H1793
Procedure, shortened: as §1

ChaGo-K-1 = system: ChaGo-K-1
Procedure, shortened: as §1

NCI-H2228 = system: NCI-H2228
Procedure, shortened: as §1

NCI-H1395 = system: NCI-H1395
Procedure, shortened: as §1

NCI-H2405 = system: NCI-H2405
Procedure, shortened: as §1

COR-L23 = system: COR-L23
Procedure, shortened: as §1

NCI-H358 = system: NCI-H358
Procedure, shortened: as §1

NCI-H1993 = system: NCI-H1993
Procedure, shortened: as §1

HARA = system: HARA
Procedure, shortened: as §1

HCC-366 = system: HCC-366
Procedure, shortened: as §1

`CC(=O)O[C@@]12CO[C@@H]1C[C@H](O)[C@@]1(C)C(=O)[C@H](O)C3=C(C)[C@@H](OC(=O)[C@H](O)[C@@H](NC(=O)OC(C)(C)C)c4ccccc4)C[C@@](O)([C@@H](OC(=O)c4ccccc4)[C@H]21)C3(C)C` [Docetaxel] + Cc1nc(Nc2ncc(C(=O)Nc3c(C)cccc3Cl)s2)cc(N2CCN(CCO)CC2)n1 [Dasatinib] (partner 0.075 µM) was tested, and the relative viability (NCI-H838; first compound 0.000632 µM) was 0.3, the relative viability (NCI-H838; first compound 0.002 µM) was 0.265 and the relative viability (NCI-H838; first compound 0.006325 µM) was 0.247. For the same compound, the relative viability (NCI-H838; first compound 0.02 µM) was 0.175, the relative viability (NCI-H1793; first compound 0.0002 µM) was 0.351 and the relative viability (NCI-H1793; first compound 0.000632 µM) was 0.345. The relative viability (NCI-H1793; first compound 0.002 µM) was 0.279, the relative viability (NCI-H1793; first compound 0.006325 µM) was 0.175 and the relative viability (NCI-H1793; first compound 0.02 µM) was 0.16. For the same compound, the relative viability (ChaGo-K-1; first compound 0.0002 µM) was 0.486, the relative viability (ChaGo-K-1; first compound 0.000632 µM) was 0.429 and the relative viability (ChaGo-K-1; first compound 0.002 µM) was 0.404. The relative viability (ChaGo-K-1; first compound 0.006325 µM) was 0.257, the relative viability (ChaGo-K-1; first compound 0.02 µM) was 0.132 and the relative viability (NCI-H2228; first compound 0.0002 µM) was 0.429. For the same compound, the relative viability (NCI-H2228; first compound 0.000632 µM) was 0.151, the relative viability (NCI-H2228; first compound 0.002 µM) was 0.12 and the relative viability (NCI-H2228; first compound 0.006325 µM) was 0.146. It also gave a relative viability (NCI-H2228; first compound 0.02 µM) of 0.0836, a relative viability (NCI-H1395; first compound 0.0002 µM) of 0.439 and a relative viability (NCI-H1395; first compound 0.000632 µM) of 0.469. It also gave a relative viability (NCI-H1395; first compound 0.002 µM) of 0.402, a relative viability (NCI-H1395; first compound 0.006325 µM) of 0.327 and a relative viability (NCI-H1395; first compound 0.02 µM) of 0.272. It also gave a relative viability (NCI-H2405; first compound 0.0002 µM) of 0.2, a relative viability (NCI-H2405; first compound 0.000632 µM) of 0.178 and a relative viability (NCI-H2405; first compound 0.002 µM) of 0.199. The relative viability (NCI-H2405; first compound 0.006325 µM) was 0.149, the relative viability (NCI-H2405; first compound 0.02 µM) was 0.14 and the relative viability (COR-L23; first compound 0.0002 µM) was 0.458. It also gave a relative viability (COR-L23; first compound 0.000632 µM) of 0.406, a relative viability (COR-L23; first compound 0.002 µM) of 0.226 and a relative viability (COR-L23; first compound 0.006325 µM) of 0.112. The relative viability (COR-L23; first compound 0.02 µM) was 0.0725, the relative viability (NCI-H358; first compound 0.0002 µM) was 0.159 and the relative viability (NCI-H358; first compound 0.000632 µM) was 0.179. It also gave a relative viability (NCI-H358; first compound 0.006325 µM) of 0.111, a relative viability (NCI-H358; first compound 0.02 µM) of 0.0699 and a relative viability (NCI-H1993; first compound 0.0002 µM) of 0.569. The relative viability (NCI-H1993; first compound 0.000632 µM) was 0.612, the relative viability (NCI-H1993; first compound 0.002 µM) was 0.589 and the relative viability (NCI-H1993; first compound 0.006325 µM) was 0.638. For the same compound, the relative viability (NCI-H1993; first compound 0.02 µM) was 0.465, the relative viability (HARA; first compound 0.0002 µM) was 0.261 and the relative viability (HARA; first compound 0.000632 µM) was 0.173. For the same compound, the relative viability (HARA; first compound 0.002 µM) was 0.134, the relative viability (HARA; first compound 0.006325 µM) was 0.0839 and the relative viability (HARA; first compound 0.02 µM) was 0.0451. The relative viability (HCC-366; first compound 0.0002 µM) was 0.569, the relative viability (HCC-366; first compound 0.000632 µM) was 0.255 and the relative viability (HCC-366; first compound 0.002 µM) was 0.119. For the same compound, the relative viability (HCC-366; first compound 0.006325 µM) was 0.0384 and the relative viability (HCC-366; first compound 0.02 µM) was 0.0228.
